Assay results published in PubChem BioAssay AID1259407 (Chemical Carcinogenesis Research Information System (CCRIS), 2018).
Active and inactive are the calls of the source. How the calls were made is not given here.

System: CCRIS mutagenicity, Ames/micronucleus/aberration tests
Assay: CCRIS mutagenicity studies

ClC(Cl)(Cl)Cl
mutagenic call (End Point: IN VITRO CHROMOSOMAL ABERRATIONS, Test System: CHO-LB CELLS, Metabolic Activation: NONE): inactive; negative | mutagenic call (End Point: IN VITRO CHROMOSOMAL ABERRATIONS, Test System: CHO-LB CELLS, Metabolic Activation: RAT, LIVER, S-9, AROCLOR 1254): inactive; negative | mutagenic call (End Point: IN VIVO MICRONUCLEUS, Test System: BONE MARROW POLYCHROMATIC ERYTHROCYTES, Species: MOUSE, Strain/Sex: MALE, Route: IP INJECTION): active; positive | mutagenic call (End Point: In vitro chromosomal aberrations, Test System: Chinese hamster lung (CHL/IU) cells, Metabolic Activation: Rat, Liver, S9, Phenobarbital and 5,6-benzoflavone): inactive; negative | mutagenic call (Test System: AMES SALMONELLA TYPHIMURIUM, Strain/Indicator: TA97, Metabolic Activation: HAMSTER, LIVER, S-9, AROCLOR 1254 (10%), Method: PREINCUBATION): inactive; negative | mutagenic call (Test System: AMES SALMONELLA TYPHIMURIUM, Strain/Indicator: TA97, Metabolic Activation: HAMSTER, LIVER, S-9, AROCLOR 1254 (30%), Method: PREINCUBATION): inactive; negative | mutagenic call (Test System: AMES SALMONELLA TYPHIMURIUM, Strain/Indicator: TA97, Metabolic Activation: NONE, Method: PREINCUBATION): inactive; negative | mutagenic call (Test System: AMES SALMONELLA TYPHIMURIUM, Strain/Indicator: TA97, Metabolic Activation: NONE, Method: STANDARD PLATE): inactive; negative | mutagenic call (Test System: AMES SALMONELLA TYPHIMURIUM, Strain/Indicator: TA97, Metabolic Activation: RAT, LIVER, S-9, AROCLOR 1254 (10%), Method: PREINCUBATION): inactive; negative | mutagenic call (Test System: AMES SALMONELLA TYPHIMURIUM, Strain/Indicator: TA97, Metabolic Activation: RAT, LIVER, S-9, AROCLOR 1254 (30%), Method: PREINCUBATION): inactive; negative | mutagenic call (Test System: AMES SALMONELLA TYPHIMURIUM, Strain/Indicator: TA97, Metabolic Activation: RAT, LIVER, S-9, AROCLOR 1254, Method: STANDARD PLATE): inactive; negative | mutagenic call (Test System: AMES SALMONELLA TYPHIMURIUM, Strain/Indicator: TA98, Metabolic Activation: HAMSTER, LIVER, S-9, AROCLOR 1254 (10%), Method: PREINCUBATION): inactive; negative | mutagenic call (Test System: AMES SALMONELLA TYPHIMURIUM, Strain/Indicator: TA98, Metabolic Activation: HAMSTER, LIVER, S-9, AROCLOR 1254 (30%), Method: PREINCUBATION): inactive; negative | mutagenic call (Test System: AMES SALMONELLA TYPHIMURIUM, Strain/Indicator: TA98, Metabolic Activation: NONE, Method: GAS EXPOSURE): active; positive | mutagenic call (Test System: AMES SALMONELLA TYPHIMURIUM, Strain/Indicator: TA98, Metabolic Activation: NONE, Method: PREINCUBATION): inactive; negative | mutagenic call (Test System: AMES SALMONELLA TYPHIMURIUM, Strain/Indicator: TA98, Metabolic Activation: RAT LIVER S-9, PHENOBARBITOL AND 5,6-BENZOFLAVONE, Method: GAS EXPOSURE): inactive; negative | mutagenic call (Test System: AMES SALMONELLA TYPHIMURIUM, Strain/Indicator: TA98, Metabolic Activation: RAT, LIVER, S-9, AROCLOR 1254 (10%), Method: PREINCUBATION): inactive; negative | mutagenic call (Test System: AMES SALMONELLA TYPHIMURIUM, Strain/Indicator: TA98, Metabolic Activation: RAT, LIVER, S-9, AROCLOR 1254 (30%), Method: PREINCUBATION): inactive; negative | mutagenic call (Test System: AMES SALMONELLA TYPHIMURIUM, Strain/Indicator: TA98, Metabolic Activation: RAT, LIVER, S-9, AROCLOR 1254, Method: STANDARD PLATE): inactive; negative | mutagenic call (Test System: AMES SALMONELLA TYPHIMURIUM, Strain/Indicator: TA100, Metabolic Activation: HAMSTER, LIVER, S-9, AROCLOR 1254 (10%), Method: PREINCUBATION): inactive; negative | mutagenic call (Test System: AMES SALMONELLA TYPHIMURIUM, Strain/Indicator: TA100, Metabolic Activation: HAMSTER, LIVER, S-9, AROCLOR 1254 (30%), Method: PREINCUBATION): inactive; negative | mutagenic call (Test System: AMES SALMONELLA TYPHIMURIUM, Strain/Indicator: TA100, Metabolic Activation: NONE, Method: PREINCUBATION): inactive; negative | mutagenic call (Test System: AMES SALMONELLA TYPHIMURIUM, Strain/Indicator: TA100, Metabolic Activation: RAT, LIVER, S-9, AROCLOR 1254 (10%), Method: PREINCUBATION): inactive; negative | mutagenic call (Test System: AMES SALMONELLA TYPHIMURIUM, Strain/Indicator: TA100, Metabolic Activation: RAT, LIVER, S-9, AROCLOR 1254 (30%), Method: PREINCUBATION): inactive; negative | mutagenic call (Test System: AMES SALMONELLA TYPHIMURIUM, Strain/Indicator: TA1535, Metabolic Activation: HAMSTER, LIVER, S-9, AROCLOR 1254 (10%), Method: PREINCUBATION): inactive; negative | mutagenic call (Test System: AMES SALMONELLA TYPHIMURIUM, Strain/Indicator: TA1535, Metabolic Activation: HAMSTER, LIVER, S-9, AROCLOR 1254 (30%), Method: PREINCUBATION): inactive; negative | mutagenic call (Test System: AMES SALMONELLA TYPHIMURIUM, Strain/Indicator: TA1535, Metabolic Activation: NONE, Method: PREINCUBATION): inactive; negative | mutagenic call (Test System: AMES SALMONELLA TYPHIMURIUM, Strain/Indicator: TA1535, Metabolic Activation: NONE, Method: STANDARD PLATE): inactive; negative | mutagenic call (Test System: AMES SALMONELLA TYPHIMURIUM, Strain/Indicator: TA1535, Metabolic Activation: RAT, LIVER, S-9, AROCLOR 1254 (10%), Method: PREINCUBATION): inactive; negative | mutagenic call (Test System: AMES SALMONELLA TYPHIMURIUM, Strain/Indicator: TA1535, Metabolic Activation: RAT, LIVER, S-9, AROCLOR 1254 (30%), Method: PREINCUBATION): inactive; negative | mutagenic call (Test System: AMES SALMONELLA TYPHIMURIUM, Strain/Indicator: TA1535, Metabolic Activation: RAT, LIVER, S-9, AROCLOR 1254, Method: STANDARD PLATE): active; positive | mutagenic call (Test System: AMES SALMONELLA TYPHIMURIUM, Strain/Indicator: TA1537, Metabolic Activation: HAMSTER, LIVER, S-9, AROCLOR 1254 (10 OR 30%), Method: PREINCUBATION): inactive; negative | mutagenic call (Test System: AMES SALMONELLA TYPHIMURIUM, Strain/Indicator: TA1537, Metabolic Activation: NONE, Method: PREINCUBATION): inactive; negative | mutagenic call (Test System: AMES SALMONELLA TYPHIMURIUM, Strain/Indicator: TA1537, Metabolic Activation: NONE, Method: STANDARD PLATE): active; positive | mutagenic call (Test System: AMES SALMONELLA TYPHIMURIUM, Strain/Indicator: TA1537, Metabolic Activation: RAT, LIVER, S-9, AROCLOR 1254 (10 OR 30%), Method: PREINCUBATION): inactive; negative | mutagenic call (Test System: Ames Salmonella typhimurium, Strain/Indicator: TA98, Metabolic Activation: None, Method: Gas exposure method): active; positive | mutagenic call (Test System: Ames Salmonella typhimurium, Strain/Indicator: TA98, Metabolic Activation: Rat, Liver, S9, Sodium phenobarbital and 5,6-benzoflavone (10%), Method: Gas exposure method): inactive; negative | mutagenic call (Test System: Ames Salmonella typhimurium, Strain/Indicator: TA100, Metabolic Activation: None, Method: Gas exposure method): inactive; negative | mutagenic call (Test System: Ames Salmonella typhimurium, Strain/Indicator: TA100, Metabolic Activation: Rat, Liver, S9, Sodium phenobarbital and 5,6-benzoflavone (10%), Method: Gas exposure method): inactive; negative | mutagenic call (Test System: Ames Salmonella typhimurium, Strain/Indicator: TA1535, Metabolic Activation: None, Method: Gas exposure method): inactive; negative | mutagenic call (Test System: Ames Salmonella typhimurium, Strain/Indicator: TA1535, Metabolic Activation: Rat, Liver, S9, Sodium phenobarbital and 5,6-benzoflavone (10%), Method: Gas exposure method): inactive; negative | mutagenic call (Test System: Ames Salmonella typhimurium, Strain/Indicator: TA1537, Metabolic Activation: None, Method: Gas exposure method): inactive; negative | mutagenic call (Test System: Ames Salmonella typhimurium, Strain/Indicator: TA1537, Metabolic Activation: Rat, Liver, S9, Sodium phenobarbital and 5,6-benzoflavone (10%), Method: Gas exposure method): inactive; negative | mutagenic call (Test System: E. COLI, Strain/Indicator: WP2UVRA/PKM101, Metabolic Activation: NONE, Method: GAS EXPOSURE): active; positive | mutagenic call (Test System: E. COLI, Strain/Indicator: WP2UVRA/PKM101, Metabolic Activation: RAT LIVER S-9, PHENOBARBITOL AND 5,6-BENZOFLAVONE, GLUTATHIONE-SUPPLEMENTED, Method: GAS EXPOSURE): active; positive | mutagenic call (Test System: E. COLI, Strain/Indicator: WP2UVRA/PKM101, Metabolic Activation: RAT LIVER S-9, PHENOBARBITOL AND 5,6-BENZOFLAVONE, Method: GAS EXPOSURE): active; positive | mutagenic call (Test System: MOUSE LYMPHOMA, Strain/Indicator: L5178Y (TK+/TK-), Metabolic Activation: RAT, LIVER, S-9, AROCLOR 1254, Method: SUSPENSION/PLATE): inactive; negative | mutagenic call (Test System: UDS RAT HEPATOCYTES, Strain/Indicator: BROMODEOXYURIDINE INCORP, Metabolic Activation: NONE, Method: FLOW CYTOMETRIC ANALYSIS): inactive; negative | mutagenic call (Test System: UDS RAT HEPATOCYTES, Strain/Indicator: THY INCORP, Metabolic Activation: NONE, Method: AUTORADIOGRAPHY): inactive; negative

O=C1NC(=O)C(Cl)C1=C(Cl)Cl (stereo not given)
mutagenic call (Test System: AMES SALMONELLA TYPHIMURIUM, Strain/Indicator: TA100, Metabolic Activation: NONE, Method: STANDARD PLATE): active; positive
